Experimental data from US6414147B1, “2-amino-9-alkylpurines: GABA brain receptor ligands” (Neurogen Corporation, priority 1998, dated 2002).

Compound | melting point
CCCCn1cnc2c(Oc3ccccc3)nc(Nc3ccccc3)nc21 [compound 19, 2-(Phenylamino)-6-phenoxy-9-butyl-9H-purine] | 124 to 125 °C
C=CCOc1nc(Nc2cnc3ccccc3c2)nc2c1ncn2CCCC [compound 92, 2-[(Quinolin-3-yl)amino]-6-(2-propen-1-oxy)-9-butyl-9H-purine] | 188 to 192 °C
CCCCCn1cnc2c(OCC)nc(Nc3ccccc3)nc21 [compound 22, 2-(Phenylamino)-6-ethoxy-9-pentyl-9H-purine] | 174 to 176 °C
CCCCn1cnc2c(OCC(C)C)nc(Nc3ccc(OCC)nc3)nc21 [compound 83, 2-[(2-Ethoxypyrid-5-yl)amino]-6-(2-methylprop-1-oxy)-9-butyl-9H-purine] | 96 to 98 °C
CCCCn1cnc2c(OCCOCCC)nc(Nc3ccc(F)cc3)nc21 [compound 30, 2-[(4-Fluorophenyl)amino]-6-(2-prop-1-oxyethoxy)-9-butyl-9H-purine] | 149 to 150 °C
CCCCn1cnc2c(OCCO)nc(Nc3ccc(OCC)nc3)nc21 [compound 84, 2-[(2-Ethoxypyrid-5-yl)amino]-6-(2-hydroxyethoxy)-9-butyl-9H-purine] | 166 to 168 °C
CCCCn1cnc2c(Oc3ccccc3F)nc(Nc3ccc(F)cc3)nc21 [compound 34, 2-[(4-Fluorophenyl)amino]-6-(2-fluorophenoxy)-9-butyl-9H-purine] | 155 to 157 °C
CCCCn1cnc2c(OC(C)COC)nc(Nc3ccccc3)nc21 (stereo not shown) [compound 13, 2-(Phenylamino)-6-(1-methyl-2-methoxyethoxy)-9-butyl-9H-purine] | 96 to 98 °C
CCCCn1cnc2c(OCCOC)nc(Nc3cnc4ccccc4c3)nc21 [compound 88, 2-[(Quinolin-3-yl)amino]-6-(2-methoxyethoxy)-9-butyl-9H-purine] | 161 to 163 °C
C=C(C)COc1nc(Nc2ccc(OCC)nc2)nc2c1ncn2CCCC [compound 75, 2-[(2-Ethoxypyrid-5-yl)amino]-6-(2-methyl-2-propen-1-oxy)-9-butyl-9H-purine] | 108 to 110 °C
CCCCn1cnc2c(OCCF)nc(Nc3ccc(OCC)nc3)nc21 [compound 74, 2-[(2-Ethoxypyrid-5-yl)amino]-6-(2-fluoroethoxy)-9-butyl-9H-purine] | 156 to 157 °C
CCCCn1cnc2c(OCC)nc(Nc3ccc(OC)nc3)nc21 [compound 56, 2-[(2-Methoxypyrid-5-yl)amino]-6-ethoxy-9-butyl-9H-purine] | 170 to 172 °C
CCCCn1cnc2c(OC)nc(Nc3ccccc3OC)nc21 [compound 44, 2-[(2-Methoxyphenyl)amino]-6-methoxy-9-butyl-9H-purine] | 101 to 103 °C
CCCCn1cnc2c(OCC(F)F)nc(Nc3ccc(OC)nc3)nc21 [compound 59, 2-[(2-Methoxypyrid-5-yl)amino]-6-(2,2-difluoroethoxy)-9-butyl-9H-purine] | 165 to 167 °C
CCCCn1cnc2c(Oc3cccc(OC)c3)nc(Nc3ccc(F)cc3)nc21 [compound 35, 2-[(4-Fluorophenyl)amino]-6-(3-methoxyphenoxy)-9-butyl-9H-purine] | 185 to 187 °C
CCCCn1cnc2c(OCC)nc(Nc3ccc(OC)cc3OC)nc21 [compound 48, 2-[(2,4-Dimethoxyphenyl)amino]-6-ethoxy-9-butyl-9H-purine] | 86 to 88 °C
CCCCn1cnc2c(OCCOC(C)C)nc(Nc3ccc(F)cc3)nc21 [compound 29, 2-[(4-Fluorophenyl)amino]-6-(2-isopropoxyethoxy)-9-butyl-9H-purine] | 116 to 118 °C
CCCn1cnc2c(Oc3ccccc3)nc(Nc3ccc(OC)nc3)nc21 [compound 66, 2-[(2-Methoxypyrid-5-yl)amino]-6-phenoxy-9-propyl-9H-purine] | 188 to 190 °C
CCCCn1cnc2c(OC)nc(Nc3ccc(F)cc3)nc21 [compound 27, 2-[(4-Fluorophenyl)amino]-6-methoxy-9-butyl-9H-purine] | 185 to 187 °C

Compound | melting point
CCCCn1cnc2c(OC)nc(Nc3ccc(OCC)nc3)nc21 [compound 1, 2-[(2-Ethoxypyrid-5-yl)amino]-6-methoxy-9-butyl-9H-purine] | 174 to 176 °C
CCCCn1cnc2c(OC)nc(Nc3ccc(OC)c(OC)c3)nc21 [compound 52, 2-[(3,4-Dimethoxyphenyl)amino]-6-methoxy-9-butyl-9H-purine] | 160 to 162 °C
CCCCn1cnc2c(OC)nc(Nc3ccc(OC)cc3)nc21 [compound 39, 2-[(4-Methoxyphenyl)amino]-6-methoxy-9-butyl-9H-purine] | 158 to 160 °C
CCCCn1cnc2c(Oc3ccccc3)nc(Nc3ccc(OC)nc3)nc21 [compound 64, 2-[(2-Methoxypyrid-5-yl)amino]-6-phenoxy-9-butyl-9H-purine] | 146 to 148 °C
CCCn1cnc2c(OCC(C)C)nc(Nc3ccc(OC)nc3)nc21 [compound 65, 2-[(2-Methoxypyrid-5-yl)amino]-6-(2-methylprop-1-oxy)-9-propyl-9H-purine] | 113 to 115 °C
CCCCn1cnc2c(Oc3ccc(OCC)cc3)nc(Nc3ccc(F)cc3)nc21 [compound 36, 2-[(4-Fluorophenyl)amino]-6-(4-ethoxyphenoxy)-9-butyl-9H-purine] | 138 to 140 °C
CCCCn1cnc2c(OCCC(C)C)nc(Nc3ccc(F)cc3)nc21 [compound 32, 2-[(4-Fluorophenyl)amino]-6-(3-methylbut-1-oxy)-9-butyl-9H-purine] | 88 to 90 °C
C=CCOc1nc(Nc2ccc(OCC)nc2)nc2c1ncn2CCCC [compound 73, 2-[(2-Ethoxypyrid-5-yl)amino]-6-(2-propen-1-oxy)-9-butyl-9H-purine] | 158 to 160 °C
CCCCn1cnc2c(SCC)nc(Nc3ccccc3)nc21 [compound 8, 2-(Phenylamino)-6-(ethylthio)-9-butyl-9H-purine] | 173 to 175 °C
COc1nc(Nc2ccccc2)nc2c1ncn2CCCO [compound 21, 2-(Phenylamino)-6-methoxy-9-(3-hydroxypropyl)-9H-purine] | 90 to 94 °C
CCCCn1cnc2c(OCC)nc(Nc3ccc(OCC)nc3)nc21 [compound 71, 2-[(2-Ethoxypyrid-5-yl)amino]-6-ethoxy-9-butyl-9H-purine] | 167 to 169 °C
CCCCn1cnc2c(OCCOC)nc(Nc3ccccc3)nc21 [compound 10, 2-(Phenylamino)-6-(2-methoxyethoxy)-9-butyl-9H-purine] | 129 to 131 °C
CCCCCCn1cnc2c(OC)nc(Nc3ccccc3)nc21 [compound 23, 2-(Phenylamino)-6-methoxy-9-hexyl-9H-purine] | 158 to 160 °C
CCCCn1cnc2c(OCCOC)nc(Nc3ccc(OC)cc3OC)nc21 [compound 49, 2-[(2,4-Dimethoxyphenyl)amino]-6-(2-methoxyethoxy)-9-butyl-9H-purine] | 88 to 89 °C
CCCCn1cnc2c(OCC)nc(NCc3ccc(OC)cc3)nc21 [compound 97, 2-[(4-Methoxybenzyl)amino]-6-ethoxy-9-butyl-9H-purine] | 129 to 130 °C
CCCCn1cnc2c(OCc3cccs3)nc(Nc3ccccc3)nc21 [compound 18, 2-(Phenylamino)-6-(thien-2-ylmethoxy)-9-butyl-9H-purine] | 170 to 172 °C
CCCCn1cnc2c(OC)nc(Nc3ccc(OCC)cc3)nc21 [compound 40, 2-[(4-Ethoxyphenyl)amino]-6-methoxy-9-butyl-9H-purine] | 171 to 172 °C
CCCCn1cnc2c(OCC3CC3)nc(Nc3ccc(OC)nc3)nc21 [compound 68, 2-[(2-Methoxypyrid-5-yl)amino]-6-cyclopropylmethoxy-9-butyl-9H-purine] | 148 to 150 °C
